Measurements reported in patent US10548912B2, “Dosage regimen for a tiacumicin compound” (Astellas Pharma Europe Ltd., priority 2015, dated 2020).
Read-outs that look alike come from different tables or passages of the source.

How the values were obtained:
[1] = test system: Clostridium difficile infection; conditions: Louie 2011; 200 mg Fidaxomicin twice daily or vancomycin 125 mg four times daily orally for 10 days; cited from earlier work
[2] = test system: CDI; conditions: Phase III studies, mITT analysis; cited from earlier work
[3] = test system: Clostridium difficile (C. diff) toxins A and B; assay: Detection of C. difficile toxins A and B in human faecal samples by ELISA (EXTEND samples); type: in vivo
Experimental: The detection of Clostridium difficile (C. diff) toxins A and B in human faecal samples was performed by ELISA. The samples to be analysed originated from clinical study 2819-MA-1002 (EXTEND).
The samples were sent to LGC (Analytical lab in Fordham, Cambridgeshire, UK) packed in dry ice and upon receipt stored in a freezer (nominally −80° C.). For each patient a stool sample was collected at Day 0 (screening) and also in case of disease recurrence or an unscheduled visit. For subjects participating in the Microbiome sub-study stool samples were collected at: Day 0 (screening), Day 5, Day 12, Day 27, Day 40, Day 55 and in the case of disease recurrence or an unscheduled visit. A total of 596 faecal samples were collected during the study.
C. difficile toxins A and B in human faecal samples were detected using TECHLAB C. difficile Tox A/B II ELISA kits (Product Number T5015).
The assay readout is the spectrophotometric dual wavelength optical density (OD) read at 450 nm and referenced at 620 nm and expressed in Absorbance Units (AU). All samples were measured in duplicate. The presence (+) or absence (−) of toxin was reported together with the mean OD.
The acceptability of each batch of test samples was dependent on the data from the QC samples fulfilling the acceptance criteria outlined below in Table 5, in that all positive QCs remain above the cut off value of >0.080 OD and negative QCs remain ≤0.080 OD. All batches contained 2 separate sets of QC samples which were measured in duplicate. The precision was calculated between the OD of replicates of each set using the coefficient of variation (CV) which should be <20%.

[4] = test system: Clostridium difficile infection; conditions: Cornely 2012; 200 mg Fidaxomicin twice daily or vancomycin 125 mg four times daily orally for 10 days; cited from earlier work
[5] = test system: Clostridium difficile infection; assay: Phase IIIb/IV randomized open-label EXTEND study (2819-MA-1002): extended fidaxomicin vs standard vancomycin; type: in vivo, human
Experimental: Fidaxomicin (FDX) is believed to reduce recurrence primarily through minimal collateral damage to colonic microflora. […] Subjects will receive 200 mg twice daily (b.i.d.) for 5 days from Day 1 to Day 5. From Day 6 to Day 25, subjects will receive 200 mg once daily on alternate days (first alternate day dose given on Day 7). This extension of the dose will allow a longer period for the protective microflora to recover and extend the period of time over which Clostridium difficile cells are suppressed, and kill any dormant spores that germinate. The extension of the dose also targets the early recurrence period documented in the phase 3 studies—the first 15 days after the end of therapy during which the majority of recurrences occurred. By covering this period this revised dosing regimen may reduce the recurrence to <10%, preferably to <5% and even more preferred to <3%. The impact on the gut microflora was limited supporting the rationale for this study.
The dosing of vancomycin (Vancocin™) to be administered in this study is in line with the SmPC for Vancocin. Subjects will receive 125 mg four times daily (q.i.d.) for 10 days from Day 1 to Day 10.
The dosage regimen was as described in Table 1 of Example 1.

[6] = test system: Clostridium difficile infections (CDI); conditions: following a vancomycin taper; cited from earlier work
[7] = Sub-study visit day 5, n = 20 per arm
[8] = Sub-study visit day 12, n = 20 per arm
[9] = Sub-study visit day 27, n = 20 Fidaxomicin, 17 Vancomycin
[10] = Day 55, extended fidaxomicin or standard vancomycin
[11] = Table 7, extended fidaxomicin regimen of Example 1 or standard vancomycin
[12] = extended fidaxomicin Day 55, standard vancomycin Day 40

## CN[C@H](CC(C)C)C(=O)N[C@H]1C(=O)N[C@@H](CC(N)=O)C(=O)N[C@H]2C(=O)N[C@H]3C(=O)N[C@H](C(=O)N[C@H](C(=O)O)c4cc(O)cc(O)c4-c4cc3ccc4O)[C@H](O)c3ccc(c(Cl)c3)Oc3cc2cc(c3O[C@@H]2O[C@H](CO)[C@@H](O)[C@H](O)[C@H]2O[C@H]2C[C@](C)(N)[C@H](O)[C@H](C)O2)Oc2ccc(cc2Cl)[C@H]1O [vancomycin]
[1]
  Recurrence 30 days after end of treatment (%): 25.3%
  Recurrence 30 days after end of treatment (patients/N): 67/265
  Sustained clinical cure 30 days after end of treatment (patients/N): 198/309
[2]
  Recurrence of CDI: 26%
[3]; [7]
  CDI toxin in faecal stool samples, Negative (%): (75%)
  CDI toxin in faecal stool samples, Negative (number of subjects): 15
  CDI toxin in faecal stool samples, Positive (%): (25.0%)
  CDI toxin in faecal stool samples, Positive (number of subjects): 5
[3]; [8]
  CDI toxin in faecal stool samples, Negative (%): (100.0%)
  CDI toxin in faecal stool samples, Negative (number of subjects): 20
  CDI toxin in faecal stool samples, Positive (number of subjects): 0
[3]; [9]
  CDI toxin in faecal stool samples, Negative (%): (82.4%)
  CDI toxin in faecal stool samples, Negative (number of subjects): 14
  CDI toxin in faecal stool samples, Positive (%): (17.6%)
  CDI toxin in faecal stool samples, Positive (number of subjects): 3
[4]
  Recurrence 30 days after end of treatment (%): 26.9%
  Recurrence 30 days after end of treatment (patients/N): 60/223
  Sustained clinical cure 30 days after end of treatment (patients/N): 163/257
[5]; Day 1
  % of patients with <3 Unformed bowel movements per day (UBM): 21.1%
  % of patients with ≥3 Unformed bowel movements per day (UBM): 78.9%
[5]; Day 2
  % of patients with <3 Unformed bowel movements per day (UBM): 40.6%
  % of patients with ≥3 Unformed bowel movements per day (UBM): 59.4%
[5]; Day 3
  % of patients with <3 Unformed bowel movements per day (UBM): 59.6%
  % of patients with ≥3 Unformed bowel movements per day (UBM): 40.4%
[5]; Day 4
  % of patients with <3 Unformed bowel movements per day (UBM): 72.0%
  % of patients with ≥3 Unformed bowel movements per day (UBM): 28.0%
[5]; Day 5
  % of patients with <3 Unformed bowel movements per day (UBM): 81.4%
  % of patients with ≥3 Unformed bowel movements per day (UBM): 18.6%
[5]; Day 6
  % of patients with <3 Unformed bowel movements per day (UBM): 80.6%
  % of patients with ≥3 Unformed bowel movements per day (UBM): 19.4%
[5]; Day 7
  % of patients with <3 Unformed bowel movements per day (UBM): 85.5%
  % of patients with ≥3 Unformed bowel movements per day (UBM): 14.5%
[5]; Day 8
  % of patients with <3 Unformed bowel movements per day (UBM): 86.8%
  % of patients with ≥3 Unformed bowel movements per day (UBM): 13.2%
[5]; Day 9
  % of patients with <3 Unformed bowel movements per day (UBM): 88.1%
  % of patients with ≥3 Unformed bowel movements per day (UBM): 11.9%
[5]; Day 10
  % of patients with <3 Unformed bowel movements per day (UBM): 89.9%
  % of patients with ≥3 Unformed bowel movements per day (UBM): 10.1%
[5]; Day 11
  % of patients with <3 Unformed bowel movements per day (UBM): 91.5%
  % of patients with ≥3 Unformed bowel movements per day (UBM): 8.5%
[5]; Day 12
  % of patients with <3 Unformed bowel movements per day (UBM): 94.7%
  % of patients with ≥3 Unformed bowel movements per day (UBM): 5.3%
[5]; Day 13
  % of patients with <3 Unformed bowel movements per day (UBM): 84.4%
  % of patients with ≥3 Unformed bowel movements per day (UBM): 15.6%
[5]; [10]
  Recurrence of CDI (%) at visit 5 (Day 55): 16.1%
  Recurrence of CDI at visit 5 (Day 55) (patients/N): 26/161
[5]; Day 55, extended fidaxomicin or standard vancomycin, listed as VAN
  Recurrence of CDI at visit 5 (Day 55) (patients/N): 15/94
[5]; [11]
  Recurrence 30 days after end of treatment (%): 16.1%
  Recurrence 30 days after end of treatment (patients/N): 26/161
[5]; [12]
  Sustained clinical cure (%) at 30 days after end of treatment: 62.9%
  Sustained clinical cure at 30 days after end of treatment (patients/N): 105/167
[5]; extended fidaxomicin Day 55, standard vancomycin Day 40, listed as VAN
  Sustained clinical cure (%) at 30 days after end of treatment: 62.9%
[6]
  Average symptom-free interval (SFI): 37 days
